The IC50 is the point on the concentration scale where inhibition reaches its midpoint. Low readings indicate inhibition by little substance, high ones a need for much substance.

The target of this assay is T1, human neurokinin-1 receptor (NK1R) (Homo sapiens, UniProt P25103).
T1 construct: expressed in transfected cells
T1 sequence (P25103 whole entry): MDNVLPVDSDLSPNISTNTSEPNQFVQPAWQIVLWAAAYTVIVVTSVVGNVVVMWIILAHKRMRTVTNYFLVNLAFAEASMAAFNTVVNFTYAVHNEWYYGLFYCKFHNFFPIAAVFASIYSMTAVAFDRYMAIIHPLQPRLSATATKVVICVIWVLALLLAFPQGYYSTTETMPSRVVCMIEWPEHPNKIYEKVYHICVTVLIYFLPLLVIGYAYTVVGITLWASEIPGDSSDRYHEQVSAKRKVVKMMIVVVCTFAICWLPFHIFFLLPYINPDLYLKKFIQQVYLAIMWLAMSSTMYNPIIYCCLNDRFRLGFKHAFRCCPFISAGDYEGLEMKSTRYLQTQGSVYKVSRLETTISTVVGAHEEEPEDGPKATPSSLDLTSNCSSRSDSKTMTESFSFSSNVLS
Kind of assay: 125I-substance P binding assay of human NK1R expressed in COS or CHO cells. The settings on record: competition with 125I-substance P. The procedure: Receptor Expression in COS: To express the cloned human neurokinin-1 receptor (NK1R) transiently in COS, the cDNA for the human NK1R was cloned into the expression vector pCDM9 which was derived from pCDM8 (INVITROGEN) by inserting the ampicillin resistance gene (nucleotide 1973 to 2964 from BLUESCRIPT SK+) into the Sac II site. Transfection of 20 ug of the plasmid DNA into 10 million COS cells was achieved by electroporation in 800 ul of transfection buffer (135 mM NaCl, 1.2 mM CaCl2, 1.2 mM MgCl2, 2.4 mM K2HPO4, 0.6 mM KH2PO4, 10 mM glucose, 10 mM HEPES pH 7.4) at 260 V and 950 uF using the IBI GENEZAPPER (IBI, New Haven, Conn.). The cells were incubated in 10% fetal calf serum, 2 mM glutamine, 100 U/ml penicillin-streptomycin, and 90% DMEM media (GIBCO, Grand Island, N.Y.) in 5% CO2 at 37° C. for three days before the binding assay.
Stable Expression in CHO: To establish a stable cell line expressing the cloned human NK1R, the cDNA was subcloned into the vector pRcCMV (INVITROGEN). Transfection of 20 ug of the plasmid DNA into CHO cells was achieved by electroporation in 800 ul of transfection buffer supplemented with 0.625 mg/ml Herring sperm DNA at 300 V and 950 uF using the IBI GENEZAPPER (IBI). The transfected cells were incubated in CHO media [10% fetal calf serum, 100 U/ml penicillin-streptomycin, 2 mM glutamine, 1/500 hypoxanthine-thymidine (ATCC), 90% IMDM media (JRH BIOSCIENCES, Lenexa, Kans.), 0.7 mg/ml G418 (GIBCO)] in 5% CO2 at 37° C. until colonies were visible. Each colony was separated and propagated. The cell clone with the highest number of human NK1R was selected for subsequent applications such as drug screening.
Assay Protocol using COS or CHO: The binding assay of human NK1R expressed in either COS or CHO cells is based on the use of ^125I-substance P (^125I-SP, from DU PONT, Boston, Mass.) as a radioactively labeled ligand which competes with unlabeled substance P or any other ligand for binding to the human NK1R. Monolayer cell cultures of COS or CHO were dissociated by the non-enzymatic solution (SPECIALTY MEDIA, Lavallette, N.J.) and resuspended in appropriate volume of the binding buffer (50 mM Tris pH 7.5, 5 mM MnCl2, 150 mM NaCl, 0.04 mg/ml bacitracin, 0.004 mg/ml leupeptin, 0.2 mg/ml BSA, 0.01 mM phosphoramidon) such that 200 ul of the cell suspension would give rise to about 10,000 cpm of specific ^125I-SP binding (approximately 50,000 to 200,000 cells). In the binding assay, 200 ul of cells were added to a tube containing 20 ul of 1.5 to 2.5 nM of ^125I-SP and 20 ul of unlabeled substance P or any other test compound. The tubes were incubated at 4° C. or at room temperature for 1 hour with gentle shaking. The bound radioactivity was separated from unbound radioactivity by GF/C filter (BRANDEL, Gaithersburg, Md.) which was pre-wetted with 0.1% polyethylenimine. The filter was washed with 3 ml of wash buffer (50 mM Tris pH 7.5, 5 mM MnCl2, 150 mM NaCl) three times and its radioactivity was determined by gamma counter. The activation of phospholipase C by NK1R may also be measured in CHO cells expressing the human NK1R by determining the accumulation of inositol monophosphate which is a degradation product of IP3. CHO cells are seeded in 12-well plate at 250,000 cells per well. After incubating in CHO media for 4 days, cells are loaded with 0.025 uCi/ml of ^3H-myoinositol by overnight incubation. The extracellular radioactivity is removed by washing with phosphate buffered saline. LiCl is added to the well at final concentration of 0.1 mM with or without the test compound, and incubation is continued at 37° C. for […]. Substance P is added to the well at final concentration of 0.3 nM to activate the human NK1R. After 30 min of incubation at 37° C., the media is removed and 0.1 N HCl is added. Each well is sonicated at 4° C. and extracted with CHCl3/methanol (1:1). The aqueous phase is applied to a 1 ml Dowex AG 1X8 ion exchange column. […]
Compound `Cc1cc(F)ccc1[C@H]1[C@@H]2CN(C(=O)[C@H](C)O)C[C@H]2CCN1C(=O)N(C)[C@H](C)c1cc(C(F)(F)F)cc(C(F)(F)F)c1` [Example 30, (3aS,4R,7aS)-N-{(1R)-1-[3,5-bis(trifluoromethyl)phenyl]ethyl}-4-(4-fluoro-2-methylphenyl)-2-[(2S)-2-hydroxypropanoyl]-N-methyloctahydro-5H-pyrrolo[3,4-c]pyridine-5-carboxamide] came in with an IC50 of 0.072 nM.
The figure for `Cc1cc(F)ccc1[C@H]1[C@@H]2CN(C(=O)[C@@H](C)O)C[C@H]2CCN1C(=O)N(C)[C@H](C)c1cc(C(F)(F)F)cc(C(F)(F)F)c1` [Example 31, (3aS,4R,7aS)-N-{(1R)-1-[3,5-bis(trifluoromethyl)phenyl]ethyl}-4-(4-fluoro-2-methylphenyl)-2-[(2R)-2-hydroxypropanoyl]-N-methyloctahydro-5H-pyrrolo[3,4-c]pyridine-5-carboxamide] is 0.057 nM; for `Cc1cc(F)ccc1[C@H]1[C@@H]2CN(C(=O)C(C)(C)C)C[C@H]2CCN1C(=O)N(C)[C@H](C)c1cc(C(F)(F)F)cc(C(F)(F)F)c1` [Example 33, (3aS,4R,7aS)-N-{(1R)-1-[3,5-bis(trifluoromethyl)phenyl]ethyl}-2-(2,2-dimethylpropanoyl)-4-(4-fluoro-2-methylphenyl)-N-methyloctahydro-5H-pyrrolo[3,4-c]pyridine-5-carboxamide] it is 0.066 nM.
For the compound `Cc1cc(F)ccc1[C@H]1C2CN(C(=O)C3CCOCC3)C[C@H]2CCN1C(=O)N(C)[C@H](C)c1cc(C(F)(F)F)cc(C(F)(F)F)c1` (stereo partly drawn) [Example 34], the IC50 came to 0.048 nM.
The figure for `Cc1cc(F)ccc1[C@H]1[C@@H]2CN(C3CCOCC3)C[C@H]2CCN1C(=O)N(C)[C@H](C)c1cc(C(F)(F)F)cc(C(F)(F)F)c1` [Example 35, (3aS,4R,7aS)-N-{(1R)-1-[3,5-bis(trifluoromethyl)phenyl]ethyl}-4-(4-fluoro-2-methylphenyl)-N-methyl-2-(tetrahydro-2H-pyran-4-yl)octahydro-5H-pyrrolo[3,4-c]pyridine-5-carboxamide] is 0.111 nM; for `CC(=O)N1CCC(N2C[C@H]3CCN(C(=O)N(C)[C@H](C)c4cc(C(F)(F)F)cc(C(F)(F)F)c4)[C@@H](c4ccc(F)cc4C)[C@@H]3C2)CC1` [Example 36, (3aS,4R,7aS)-2-(1-acetylpiperidin-4-yl)-N-{(1R)-1-[3,5-bis(trifluoromethyl)phenyl]ethyl}-4-(4-fluoro-2-methylphenyl)-N-methyloctahydro-5H-pyrrolo[3,4-c]pyridine-5-carboxamide] it is 0.108 nM.
